From ChEMBL document CHEMBL1201862, “PubChem BioAssay data set” (2004) come the findings set out here.

SMILES strings stand for the structures.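 Each compound was tested at five concentrations against cells in 96-well plates for 48 hours. At the GI50, growth is halved.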 Calls of active or inactive are those of the source. Cut-off read from the data, not from the text of the source: active = GI50 up to about 1.1 µM and inactive = higher.

Some test systems named below: HT-29; MDA-N; MOLT-4; HL-60; MDA-MB-435; SK-MEL-28; COLO 205; U-251; RXF 393; SK-MEL-2; A549; T47D; HCC 2998; TK-10; SF-295; UACC-257; MCF7; HCT-116; SN12C; HOP-18.
Holding throughout (assay): NCI tumour cell line growth inhibition, 48 h

Consider `COc1cc(C(c2cc3c(cc2O)OCO3)N2CCCCC2)cc(OC)c1OC` (stereo not given), for which the GI50 was 17 µM (inactive) in the assay with HT-29; 7.28 µM (inactive) with MDA-N; 2.15 µM (inactive) in the assay on MOLT-4; 1.76 µM (inactive) in the assay with HL-60; 5.02 µM (inactive) in the assay with MDA-MB-435; 16.7 µM (inactive) in the assay with SK-MEL-28. Further, the GI50 with COLO 205 was 13.4 µM (inactive); in the assay with U-251, 15.8 µM (inactive); in the assay on RXF 393, 13.2 µM (inactive); in the assay with SK-MEL-2 it was 15.7 µM (inactive); in the assay on A549, 20.9 µM (inactive); in the assay on T47D, 22.4 µM (inactive). Moreover, the GI50 with HCC 2998 is 22.2 µM (inactive); in the assay on TK-10 it was 17 µM (inactive); with SF-295, 41.5 µM (inactive); in the assay on UACC-257 it was 12.5 µM (inactive); in the assay with MCF7, 13.6 µM (inactive); in the assay with HCT-116, 15.4 µM (inactive). In addition, the GI50 in the assay on SN12C is 11.5 µM (inactive).

Turning to `CCOc1ccc(-n2c(=O)c3nn4c(=O)n(-c5ccc(OCC)cc5)c(=O)c4nn3c2=O)cc1`, the GI50 in the assay with HT-29, in the assay on MDA-N, in the assay with MOLT-4, with HL-60, in the assay on MDA-MB-435 and in the assay on SK-MEL-28 was > 100 µM (inactive) in each case. The GI50 in the assay with COLO 205 was > 100 µM (inactive); in the assay with U-251, > 100 µM (inactive); with RXF 393 it was 44.6 µM (inactive); in the assay with SK-MEL-2, 39.4 µM (inactive); in the assay on A549, > 100 µM (inactive); in the assay on T47D, > 100 µM (inactive). Also, the GI50 was > 100 µM (inactive) in the assay with HCC 2998; > 100 µM (inactive) with TK-10; 43.3 µM (inactive) in the assay with SF-295; > 100 µM (inactive) in the assay with UACC-257; > 100 µM (inactive) with MCF7; > 100 µM (inactive) with HCT-116. Also, the GI50 with SN12C is > 100 µM (inactive).

Regarding `CCN(CC)CC(C(=O)Nc1c(C)cccc1C)/C(C)=N\NC(=O)c1ccncc1` (stereo not given), the GI50 in the assay on HT-29, in the assay on MOLT-4, in the assay with SK-MEL-28, in the assay with COLO 205, with U-251 and in the assay on RXF 393 was > 100 µM (inactive) each time. The GI50 in the assay on SK-MEL-2, with HOP-18, in the assay on A549, in the assay on HCC 2998, in the assay with TK-10 and with SF-295 was > 100 µM (inactive) each time. In addition, the GI50 in the assay on UACC-257, in the assay with HCT-116 and with SN12C was > 100 µM (inactive) in each case.

Regarding `C=C1C(=O)CC2C1CC(=O)/C(C)=C/CCC(C)(O)C2O` (stereo not given), the GI50 is 14.6 µM (inactive) with HT-29; 1.48 µM (inactive) in the assay on MDA-N; 1.57 µM (inactive) in the assay on MOLT-4; 4.41 µM (inactive) with HL-60; 6.55 µM (inactive) in the assay on MDA-MB-435; 14.9 µM (inactive) with SK-MEL-28. The GI50 with COLO 205 was 2.03 µM (inactive); in the assay on U-251, 10.8 µM (inactive); in the assay with RXF 393 it was 6.67 µM (inactive); in the assay on SK-MEL-2 it was 0.986 µM (active); in the assay on A549, 27.3 µM (inactive); in the assay on T47D it was 1.74 µM (inactive). The GI50 with HCC 2998 is 7.74 µM (inactive); in the assay with TK-10 it was 0.562 µM (active); in the assay with SF-295 it was 27.4 µM (inactive); in the assay with UACC-257, 0.708 µM (active); in the assay with MCF7, 0.249 µM (active); in the assay with HCT-116, 3.86 µM (inactive). For the same compound, the GI50 in the assay with SN12C is 2.29 µM (inactive).

Take `[N-]=[N+]=Nc1ccc2c(c1)Sc1ccccc1N2CCCCCl`: the GI50 was 20.1 µM (inactive) with HT-29; 48.4 µM (inactive) with MDA-N; 22 µM (inactive) in the assay with MOLT-4; 15.3 µM (inactive) in the assay with HL-60; 51.4 µM (inactive) in the assay on MDA-MB-435; > 100 µM (inactive) in the assay on SK-MEL-28. For the same compound, the GI50 with COLO 205 was 18.7 µM (inactive); in the assay with U-251, 23.7 µM (inactive); in the assay with RXF 393 it was 78.9 µM (inactive); in the assay with SK-MEL-2 it was 13.5 µM (inactive); with A549, 35.2 µM (inactive); in the assay with T47D, 44.7 µM (inactive). Further, the GI50 was 61.8 µM (inactive) in the assay on HCC 2998; > 100 µM (inactive) in the assay with TK-10; > 100 µM (inactive) with SF-295; 71.9 µM (inactive) in the assay with UACC-257; 14.9 µM (inactive) in the assay on MCF7; 30.2 µM (inactive) with HCT-116. Further, the GI50 in the assay with SN12C was > 100 µM (inactive).

Regarding `O=C(CC(c1ccccc1)N1CCCCC1)c1ccccc1` (stereo not given), the GI50 in the assay on HT-29 is 13.8 µM (inactive); in the assay on MDA-N, 12.2 µM (inactive); with MOLT-4 it was 1.96 µM (inactive); with HL-60 it was 12.5 µM (inactive); in the assay with MDA-MB-435, 12.2 µM (inactive); in the assay on SK-MEL-28, 17.8 µM (inactive). Besides, the GI50 was 20.1 µM (inactive) in the assay with COLO 205; 9.51 µM (inactive) in the assay with U-251; 18 µM (inactive) in the assay with RXF 393; 19.8 µM (inactive) with SK-MEL-2; 20.5 µM (inactive) in the assay with A549; 17.9 µM (inactive) with T47D. The GI50 with HCC 2998 was 4.62 µM (inactive); with TK-10 it was 14.2 µM (inactive); in the assay on SF-295, 16.5 µM (inactive); in the assay on UACC-257 it was 14.4 µM (inactive); with MCF7, 2.47 µM (inactive); in the assay with HCT-116, 7.31 µM (inactive). In addition, in the assay on SN12C, the GI50 is 15.6 µM (inactive).

Take `[N-]=[N+]=C(C(=O)OCC#CCOC(=O)C(=[N+]=[N-])S(=O)(=O)c1ccccc1)S(=O)(=O)c1ccccc1`: the GI50 in the assay on HT-29, with MDA-N, in the assay on MOLT-4, with HL-60, with MDA-MB-435 and in the assay with SK-MEL-28 was > 10 µM (inactive) in each case. Further, the GI50 in the assay with COLO 205, with U-251, in the assay with RXF 393, in the assay on SK-MEL-2, in the assay with A549 and with T47D was > 10 µM (inactive) in each case. For the same compound, the GI50 in the assay with HCC 2998, in the assay with TK-10, in the assay on SF-295, in the assay on UACC-257, with MCF7 and in the assay with HCT-116 was > 10 µM (inactive) each time. In the assay on SN12C, the GI50 was > 10 µM (inactive).

On to `Nc1nc(Sc2ccc([N+](=O)[O-])cn2)c2nc[nH]c2n1`, for which the GI50 with HT-29 is 4.86 µM (inactive); with MDA-N it was 3.61 µM (inactive); with MOLT-4, 4.56 µM (inactive); in the assay with HL-60, 10.7 µM (inactive); in the assay with MDA-MB-435, 4.79 µM (inactive); in the assay on SK-MEL-28, 33.8 µM (inactive). The GI50 with COLO 205 is 11.8 µM (inactive); with U-251, 15.7 µM (inactive); in the assay with RXF 393 it was 2.73 µM (inactive); in the assay with SK-MEL-2, 2.47 µM (inactive); with A549, 15.1 µM (inactive); with T47D it was 4.36 µM (inactive). The GI50 is 12.8 µM (inactive) with HCC 2998; 9.08 µM (inactive) in the assay on TK-10; 9.46 µM (inactive) in the assay on SF-295; 18 µM (inactive) in the assay on UACC-257; 5.89 µM (inactive) with MCF7; 3.94 µM (inactive) in the assay on HCT-116. Further, the GI50 in the assay on SN12C was 4.74 µM (inactive).

Consider `CC(C)c1cc(Cl)nc(Cl)n1`, for which the GI50 in the assay with HT-29, in the assay on MDA-N, in the assay on MOLT-4, in the assay on HL-60, in the assay on MDA-MB-435 and in the assay with SK-MEL-28 was > 100 µM (inactive) throughout. Moreover, the GI50 in the assay on COLO 205, in the assay with U-251, in the assay with RXF 393, in the assay with SK-MEL-2, in the assay on A549 and in the assay on T47D was > 100 µM (inactive) throughout. Moreover, the GI50 in the assay on HCC 2998, in the assay on TK-10, in the assay with SF-295, with UACC-257, in the assay with MCF7 and in the assay on HCT-116 was > 100 µM (inactive) each time. In addition, the GI50 in the assay with SN12C was > 100 µM (inactive).

Regarding `CN(C)c1ccc(/C=c2/c3ccccc3n3c2cc(/C=C/c2ccccc2)[n+]3C)cc1`, the GI50 in the assay with HT-29 was 0.142 µM (active); in the assay with MDA-N, 0.249 µM (active); with MOLT-4 it was 0.0743 µM (active); in the assay on HL-60 it was 0.0927 µM (active); in the assay with MDA-MB-435, 0.135 µM (active); in the assay with SK-MEL-28, 0.269 µM (active). The GI50 was 0.073 µM (active) in the assay with COLO 205; 0.0399 µM (active) in the assay on U-251; 0.0538 µM (active) in the assay with RXF 393; 0.282 µM (active) in the assay on SK-MEL-2; 0.0512 µM (active) with A549; 0.0164 µM (active) in the assay with T47D. Moreover, the GI50 in the assay on HCC 2998 is 0.121 µM (active); with TK-10, 0.393 µM (active); in the assay with SF-295, 0.225 µM (active); in the assay with UACC-257, 0.339 µM (active); with MCF7, 0.147 µM (active); with HCT-116 it was 0.0824 µM (active). The GI50 in the assay with SN12C is 0.0841 µM (active).

For the compound `O=c1oc2nc(-c3ccccc3)cc(C(F)(F)F)c2n1Cc1ccccc1`, the GI50 in the assay on HT-29 was 3.8 µM (inactive); in the assay on MDA-N it was 0.689 µM (active); in the assay with MOLT-4 it was 4.21 µM (inactive); in the assay on HL-60, 2.15 µM (inactive); in the assay with MDA-MB-435, 0.659 µM (active); in the assay on SK-MEL-28 it was 50.1 µM (inactive). For the same compound, the GI50 in the assay with COLO 205 was 7.82 µM (inactive); with U-251, 4.8 µM (inactive); in the assay on RXF 393, 2.71 µM (inactive); with SK-MEL-2 it was 6.43 µM (inactive); in the assay with A549, 8.69 µM (inactive); in the assay with T47D it was 3.24 µM (inactive). The GI50 with HCC 2998 was > 25.8 µM (inactive); in the assay with TK-10 it was 46.6 µM (inactive); in the assay with SF-295, 5.12 µM (inactive); in the assay on UACC-257 it was > 37.8 µM (inactive); in the assay on MCF7 it was 0.995 µM (active); with HCT-116 it was 3.13 µM (inactive). Also, in the assay on SN12C, the GI50 is 5.9 µM (inactive).
